# Experimental data published in PMC4721142, “Randomized controlled studies on the efficacy of antiarthritic agents in inhibiting cartilage degeneration and pain associated with progression of osteoarthritis in the rat” (Arthritis Research & Therapy, 2016).
# Values joined by “and” are separate entries in the source; they are usually repeats but may differ in a detail not shown here. Identical values can stand only once.
# Legend:
# MIA rat model of OA = experiment: MIA trial 2 histopathology (same doses as dRS test); format: in vivo; conditions: group mean; tacrolimus 0.3 mg/kg, other drugs single dose
# Procedure: Following functional testing in the first and second MIA trials, femurs were fixed in paraformaldehyde, processed, sectioned, stained with hematoxylin and eosin or Safranin O at Premier Laboratory (Longmont, CO, USA), and analyzed by a veterinary pathologist. For MIA trial 1, sections were evaluated for the percentage area of chondrocyte necrosis and/or proteolytic degeneration using a 5-point scale with 0 = none; 1 being <10 %; 2 = 10–30 %; 3 = 30–60 %; 4 = 60–90 %; and 5 being >90 %. Other characteristics of inflammation, proliferation, and integrity of the synovium, subchondral bone, and articular cartilage were scored as normal, minimal, mild, moderate, marked, or increased or decreased when severity was not graded. MIA trial 2 was measured similarly and then cross-checked according to the methods used for MIA trial 3 (see text below).
# For MIA trial 3, joints were fixed and toluidine blue–stained sections of the rat knees were comprehensively analyzed from test and control subjects as detailed in Additional file 1. Briefly, a 5-point cartilage matrix score was derived based upon (1) approximate percentage of total loss of articular chondrocytes for each of four articular surfaces, (2) estimated proteoglycan loss (via Safranin O staining), and (3) loss of interstitial matrix. Chondrocyte necrosis and proteolytic degeneration of the femurs were scored on a 5-point scale as in trial 1. A femoral cartilage degeneration score and a three-zone sum of the tibial cartilage degeneration scores (mean of three levels) were also summed to create a total cartilage degeneration score. The mean osteophyte score for each joint was added to this value to create a total joint score with matrix. Other parameters assessed included synovial membrane inflammation and proliferation. Representative images from each group were also collected (see, e.g., Fig. 4 and Additional file 1: Fig. S55, Trial 3).
# The histopathology for the first MIA trial was performed by Premier Laboratories (Dr. Michael Hawes, APS, Pathologist). Treatments were masked during the assessment. Chondrocyte necrosis and proteolytic degeneration of the femurs were scored on a 5 point scale with 0 = None; 1 = <10%; […]
# proteoglycan content (safranin O staining), synovial membrane inflammation and proliferation, subchondral bone, and articular cartilage (as indicated in Supplementary methods). Characteristics within these categories were scored as normal, minimal, mild, moderate, marked, or +/- when severity was not graded. Slides from Trial 2 were further reviewed by Dr. Bendele using the analytical method described below for the MMT/MCLT model to confirm any conclusions.
# For the histopathology of the MIA model in Trial 3, completed by Bolder BioPATH (and Dr.
# Bendele), a tolouidine blue stained slide containing both halves of the joint was comprehensively analyzed from test and control subjects. Approximate % of total loss of articular chondrocytes, loss of proteoglycan and loss of collagenous matrix were determined for each articular surface (medial tibial plateau (MTP), lateral tibial plateau (LTP), medial femoral condyle (MFC), and lateral femoral condyle (LFC). Chondrocyte loss was quantified by estimating the area of cartilage in which there were no apparently viable chondrocytes and proteoglycan loss was quantified by estimating differences in intensity of toluidine blue matrix staining. Loss of interstitial matrix was an indication of disruption and diminished type II collagen. Based on the mean % loss for the four surfaces in these parameters, a five point matrix score was utilized with the subchondral bone resorption, subchondral bone sclerosis and osteophyte scores to achieve a total joint score.
# (§1) Histopathology MMT/MCLT Model
# MMT/MCLT rat model of OA = experiment: MMT/MCLT trial 2 histopathology (same doses); format: in vivo; conditions: mean
# Excerpt: For MMT/MCLT rat knee joints, sections were cut in 200-μm steps; stained with toluidine blue (also with a right and left half per section); and similarly analyzed for cartilage degeneration, proteoglycan loss, collagen damage, and osteophyte formation. Results were averaged across the three sections for an overall semiquantitative score. Regional differences across the tibial plateau were taken into consideration by dividing each section into three zones delineated using an ocular micrometer (outside, middle, and inside). Scores were based on the percentage of area affected within the zone.
# Cartilage degeneration in the tibia was scored on a 5-point scale as detailed in the Methods section of Additional file 1. The total extent of degeneration of the tibial plateau was measured (in micrometers) and included an analysis of cell loss, proteoglycan loss, and collagen damage. Significant cartilage degeneration reflecting any degeneration extending through more than 50 % of the cartilage thickness was also measured. Collagen damage across the medial tibial plateau (the most severely affected section of the two halves) was also quantified.
# Osteophytes and femoral cartilage degeneration were analyzed as detailed in Additional file 1. Scoring of the osteophytes and categorization into small, medium, and large was performed using an ocular micrometer. The actual osteophyte measurement (tidemark to farthest distance point extending toward the synovium) was also recorded. The femoral cartilage degeneration score and the three-zone sum of the tibial cartilage degeneration scores (mean of three levels) were summed to create a total cartilage degeneration score. The mean osteophyte score for each joint was added to this value to create a total joint score. […]
# as §1
# NF-κB = experiment: TNF-α-stimulated NF-κB dual luciferase reporter assay in HeLa cells; format: cell-based
# Method in brief: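 HeLa cells transfected with NF-κB firefly luciferase and Renilla pRLuc-N3 plasmids (8:1), in triplicate; TNF-α stimulation with drug, luminescence read 5 h later by Dual-Glo. Firefly/Renilla ratio normalised to viable transfected cells, expressed as fold over cells without TNF-α or drug.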
# [1] = tacrolimus 30 ng i.a., clonidine 100 μg/kg s.c.
smiles,measurement,setting,value
Clc1cccc(Cl)c1N=C1NCCN1 [Clonidine],Bone resorption score,MIA rat model of OA,3.7
same,"Bone resorption, percent of surface, LFC",MIA rat model of OA,87%
same,"Bone resorption, percent of surface, LTP",MIA rat model of OA,53%
same,"Bone resorption, percent of surface, MFC",MIA rat model of OA,63%
same,"Bone resorption, percent of surface, MTP",MIA rat model of OA,73%
same,"Bone resorption, percent of surface, mean",MIA rat model of OA,69%
same,Cartilage matrix damage score,MIA rat model of OA,3.7 and 3.7 ± 0.3
same,Mean of all cartilage loss,MIA rat model of OA,67%
same,Osteophyte measure,MIA rat model of OA,866.7 µm
same,Osteophyte score,MIA rat model of OA,4.0
same,Subchondral bone sclerosis score,MIA rat model of OA,0.3
same,Total joint score w/o matrix,MIA rat model of OA,8.0
same,Total joint score with matrix,MIA rat model of OA,11.7 and 11.7 ± 0.9
same,Femoral cartilage degeneration score,"MMT/MCLT rat model of OA; i.a., tacrolimus 15 ng",0.67 ± 0.23
same,Total joint score,"MMT/MCLT rat model of OA; i.a., tacrolimus 15 ng",9.13 ± 0.54
same,Femoral cartilage degeneration score,MMT/MCLT rat model of OA; [1],0.77 ± 0.28
same,Total joint score,MMT/MCLT rat model of OA; [1],11.03 ± 0.61
same,Effective range against NFkB,NF-κB,Not effective
